≈ marks a conversion by molar mass, not a printed value. A value given as a limit tells only on which side of the number the result lay.

In general, kinetic solubility refers to the concentration staying in solution when a stock, usually in DMSO, is diluted into the medium.

The conditions of this series: buffer; pH 7.4; 200.0 µM.
`C=CCn1c(O)c(C(CC)=NCC2CCCO2)c(=O)[nH]c1=O` (centres undefined) yielded a solubility (kinetic) above 46.1 µg/mL.
Turning to `CCOC(=O)C1CCN(S(=O)(=O)c2ccc(Cl)s2)CC1`, the solubility (kinetic) worked out at 12.3 µg/mL (≈ 36.4 µM).
`CN1CCN(C(=S)NC(=O)c2ccc(Br)cc2)CC1` yielded a solubility (kinetic) of 51 µg/mL (≈ 149 µM).
`O=c1c2ccccc2ncn1CCOCCOc1ccc([N+](=O)[O-])cc1`: the kinetic solubility was 17.1 µg/mL (≈ 48.1 µM).
Regarding `CC(=O)c1ccc(NS(=O)(=O)c2ccc(C(C)(C)C)cc2)cc1`, the kinetic solubility was found to be 1.7 µg/mL (≈ 5.13 µM).
On to `O=C(NCCN1CCOCC1)C1CC(=O)N(c2ccc(Cl)cc2)C1` (centres undefined), for which the kinetic solubility was above 52.8 µg/mL.
`COc1cccc(Nc2c([N+](=O)[O-])cncc2[N+](=O)[O-])c1` showed a kinetic solubility above 43.5 µg/mL.
In turn, `Cc1ccc2c(c1)C(c1ccccc1)=NCC(=O)N2` returned a kinetic solubility above 37.5 µg/mL.
For `N#CC(C#N)=CN=c1ccn(Cc2ccc(Cl)cc2Cl)cc1`, the kinetic solubility came to 1.4 µg/mL (≈ 4.25 µM).
To `O=C(NC1CC1)C1CCN(C(=O)c2ccc(Cl)cc2)CC1` belongs 45.8 µg/mL (≈ 149 µM).
Turning to `CN(C)CC/C=C1\c2cc(Cl)ccc2Sc2cc(F)c(F)cc21.Cl`, the solubility (kinetic) came to 21.8 µg/mL.
To `O=C(O)CSC1CC(=O)N(c2ccc(Br)cc2)C1=O` (centres undefined) belongs above 51.6 µg/mL; to `COCCCN(CC(=O)O)S(=O)(=O)c1cccc(Cl)c1`, above 48.3 µg/mL; to `O=[N+]([O-])c1ccc(OCCO)nc1`, 26.7 µg/mL (≈ 145 µM).
Regarding `N#C/C(=C(/O)c1ccc(C(=O)c2ccccc2)cc1)c1nc2ccccc2[nH]1`, the kinetic solubility was below 0.3 µg/mL.
Compound `COc1cc(CN2CCCCCC2)cc(Br)c1O` registered a solubility (kinetic) of 39.6 µg/mL (≈ 126 µM).
`O=C(NCc1cccnc1)c1nn2cccnc2c1Cl`: the solubility (kinetic) was above 43.2 µg/mL.
Regarding `COc1cc2c(cc1OC)CN(CC(=O)NC(=O)NC1CCCCC1)CC2`, the solubility (kinetic) is above 56.3 µg/mL.
In turn, `O=C(Nc1cccc(C(=O)O)c1)Nc1ccc2c(c1)OCO2` yielded a kinetic solubility above 45 µg/mL.
Turning to `Cc1nc(SC(C(N)=O)c2ccccc2)c(C#N)c(C)c1C` (centres undefined), the solubility (kinetic) was 1 µg/mL (≈ 3.21 µM).
In the case of `CN(C)c1cc(-c2ccc(Cl)cc2)oc(=O)c1Cl` it was 1.7 µg/mL (≈ 5.98 µM); in that of `CN/C(=C\[N+](=O)[O-])NCCSCc1csc(CN(C)C)n1`, above 49.7 µg/mL.
As for `Cc1ccccc1NC(=O)CCCCC(=O)Nc1ccccc1C`, the solubility (kinetic) was determined as 2.6 µg/mL (≈ 8.01 µM).
To `CCC1(C)CC(C(N)=S)CCO1` (centres undefined) belongs 17.1 µg/mL (≈ 91.3 µM); to `CCOc1ncccc1C(=O)Nc1cc2c(cc1Br)OCCO2`, 6.5 µg/mL (≈ 17.1 µM).
`CC(C)(C)OC(=O)N1CCC[C@@H]1CO` gave a solubility (kinetic) above 30.2 µg/mL.
In the case of `CC(C)(C)c1ccc(C(=O)NC2CCS(=O)(=O)C2)cc1` (centres undefined), the kinetic solubility is above 44.3 µg/mL.
`CC1(C)CC(=O)C=C(Nc2ccc(Cl)cc2)C1` came in with a kinetic solubility of 34.2 µg/mL (≈ 137 µM).
`COc1ccc(CN(C)C(=O)c2ccncc2)c(OC)c1` displayed a kinetic solubility above 42.9 µg/mL.
`CCCCc1ccc(NC(=S)N2CCN(C(=O)OCC)CC2)cc1` came in with a solubility (kinetic) of 2.2 µg/mL (≈ 6.29 µM).
Regarding `O=C(CCC(=O)NC12CC3CC(CC(C3)C1)C2)NC1CCCCC1`, the solubility (kinetic) is 17.2 µg/mL (≈ 51.7 µM).
With `Cc1ccc2c(CN(C)Cc3cccc(Cl)c3)cc(=O)oc2c1C`, the solubility (kinetic) is below 0.7 µg/mL.
Compound `Cc1ccc(NC(=O)CCN2C(=O)NC(C)(C)C2=O)cc1F` gave a kinetic solubility above 46.1 µg/mL.
To `O=C(Nc1ccc(N2CCCC2)cc1)c1cccc(Cl)c1` belongs below 0.3 µg/mL.
Compound `O=c1[nH]c(NCCO)c(N=Cc2ccccc2)c(=O)[nH]1` returned a kinetic solubility above 41.1 µg/mL.
`Cn1c(N)c(C(=O)COC(=O)c2ccc3ccccc3c2)c(=O)n(C)c1=O` showed a kinetic solubility of 3.8 µg/mL (≈ 10.3 µM).
On to `COCC(C)NC(=S)Nc1ccccc1[N+](=O)[O-]` (centres undefined), for which the kinetic solubility was above 40.4 µg/mL.
In the case of `Clc1ccc(CN2CCN(c3ccccc3)CC2)cn1`, the kinetic solubility amounted to 21 µg/mL (≈ 73 µM).
`COc1ccc(C(=O)OC(C)CN2CCN(C)CC2)cc1.Cl` (centres undefined) came in with a solubility (kinetic) above 49.3 µg/mL.
Consider `COc1ccc(NC(=O)CC2CC3CCC2C3)cc1S(=O)(=O)N1CCOCC1` (centres undefined), for which the kinetic solubility is above 61.3 µg/mL.
The compound `COc1cc(Br)c(Br)cc1N` yielded a solubility (kinetic) of 14.7 µg/mL (≈ 52.3 µM).
Take `Cc1ccnc(SCc2cn3c(C)cc(C)nc3n2)n1`: the kinetic solubility is above 42.8 µg/mL.
`COc1cc(F)ccc1S(=O)(=O)NCc1cccnc1` came in with a solubility (kinetic) above 44.4 µg/mL.
To `Cc1nc2ccc(NC(=O)C3CCCCC3)cc2s1` belongs 13.2 µg/mL (≈ 48.1 µM); to `Cc1cccc(C)c1NC(=O)CNC(=O)Cc1ccccc1[N+](=O)[O-]`, 18.2 µg/mL (≈ 53.3 µM).
`O=C1CCC([N+](=O)[O-])C(c2cccc3ccccc23)N1` (centres undefined) had a solubility (kinetic) above 40.5 µg/mL.
On to `Cc1c(Cl)cccc1NC(=S)Nc1ccccn1`, for which the solubility (kinetic) amounted to 1 µg/mL (≈ 3.6 µM).
`COc1cc2nc(CCc3ccccc3)oc(=O)c2cc1OC` registered a kinetic solubility above 46.7 µg/mL.
`CC(=O)c1ccc(NC(=S)NC(=O)/C=C/c2ccco2)cc1` returned a solubility (kinetic) of 1.4 µg/mL (≈ 4.45 µM).
Regarding `Cc1c(C=O)c2ccccc2n1CCOc1ccccc1`, the solubility (kinetic) stood at 6.2 µg/mL (≈ 22.2 µM).
As for `COCCCNC(=O)c1ccccc1-c1cc(C)no1`, the solubility (kinetic) was determined as 32.6 µg/mL (≈ 119 µM).
In the case of `CC(C)CNC(=O)c1ccc2c(c1)C(=O)N(Cc1ccco1)C2=O` it was 25.9 µg/mL (≈ 79.4 µM); in that of `CC1(C)c2ccccc2N(CC(N)=O)C12C=Cc1ccccc1O2` (centres undefined), 12.6 µg/mL (≈ 39.3 µM); in that of `Cc1noc(C)c1COc1ccc(C(=O)N2CCN(S(=O)(=O)c3cccc(F)c3)CC2)cc1`, 25.1 µg/mL (≈ 53 µM).
As to `CN(CC(=O)Nc1ccc2c(c1)OCO2)CC(=O)Nc1ccc(F)c(F)c1F`, the solubility (kinetic) was above 59.3 µg/mL.
With `Cc1ccccc1NC(=O)c1cccc(NC(=O)c2ccccc2C(=O)O)c1`, the solubility (kinetic) was 55.8 µg/mL (≈ 149 µM).
`CSc1nc(C)nc(N/C=C(\C#N)S(=O)(=O)c2ccccc2Cl)n1` registered a kinetic solubility of 15.6 µg/mL (≈ 40.9 µM). Against the preceding compound, the solubility kinetic is about 3.6-fold lower.
The compound `Nc1cc(=O)[nH]c(SCc2cccc3ccccc23)n1` displayed a kinetic solubility of 4 µg/mL (≈ 14.1 µM).
Turning to `CC(C)(O)C#Cc1ccc(C(=O)NC2CCCCC2)s1`, the solubility (kinetic) was above 43.7 µg/mL.
In turn, `O=C1CC(N2CCc3ccccc32)C(=O)N1c1ccc(F)cc1` (centres undefined) had a solubility (kinetic) above 46.5 µg/mL.
`COc1ccccc1OCCNC(=O)CCNC(=O)c1ccccc1Cl` gave a kinetic solubility above 56.5 µg/mL.
`CN(C)C=Nc1nonc1-c1ccccc1` gave a kinetic solubility of 24.4 µg/mL (≈ 113 µM).
For the compound `CCN1C(=O)C(=O)N(CC(=O)Nc2cc(C)ccc2C)C1=O`, the solubility (kinetic) was above 45.5 µg/mL.
As to `O=C(Nc1ncccn1)c1ccc(Cl)c([N+](=O)[O-])c1`, the solubility (kinetic) is above 41.8 µg/mL.
`COc1ccccc1N(C)S(=O)(=O)c1ccc(C(=O)Nc2cc(F)ccc2C)cc1`: the kinetic solubility amounted to 7.5 µg/mL (≈ 17.5 µM).
To `COc1ccc(OCC(=O)OC2CCCN(C)C2)cc1.Cl` (centres undefined) belongs above 47.4 µg/mL; to `Cc1ccc(S(=O)(=O)N(C)CC(=O)NCCCn2ccnc2)cc1`, 48.6 µg/mL (≈ 139 µM).
To `Cc1ccc2oc(C(=O)N3CCCCCC3)c(C)c2c1` belongs 16.6 µg/mL (≈ 61.2 µM); to `COc1ccc(C(=O)NCC(=O)OCC(=O)NC2CCCCCC2)cc1`, above 54.4 µg/mL.
`OC(CN1CCCCC1)Cn1c2ccccc2c2ccccc21` (centres undefined) had a kinetic solubility of 45.1 µg/mL (≈ 146 µM).
To `Cc1cc(C)cc(C(=O)N2CCC3(CC2)NCCc2[nH]cnc23)c1` belongs above 48.7 µg/mL; to `O=C(NCCc1ccc(Cl)cc1)c1ccc2ccccc2n1`, 5.9 µg/mL (≈ 19 µM).
To `CCN(CC)C(=O)N1CCN(S(=O)(=O)c2ccccc2)CC1` belongs above 48.8 µg/mL; to `Cc1ccc(C(=O)NS(=O)(=O)c2ccc(C)cc2)cc1`, above 43.4 µg/mL.

The values are drawn from PubChem BioAssay AID1996.
